{"source": "patent US9765087B2", "about": "“Benzimidazole derivatives” (ENANTA PHARMACEUTICALS, INC., priority 2009, dated 2017)"}
{"system": "HCV 1b genotype replicon", "experiment": "HCV replicon assay (qRT-PCR or luciferase), genotype 1b", "assay_type": "cell-based", "conditions": "Hepatitis C virus, Table 11, qRT-PCR or luciferase assay, read-out: Genotype-1b replicon EC50 Range", "text": "(§1) HCV replicon cell lines (kindly provided by R. Bartenschlager) isolated from colonies as described by Lohman et. al. (Lohman et al. (1999) Science 285: 110-113, expressly incorporated by reference in its entirety) and used for all experiments. The HCV replicon has the nucleic acid sequence set forth in EMBL Accession No.: AJ242651, the coding sequence of which is from nucleotides 1801 to 8406.\n(§2) The coding sequence of the published HCV replicon was synthesized and subsequently assembled in a modified plasmid pBR322 (Promega, Madison, Wis.) using standard molecular biology techniques. One replicon cell line (“SGR 11-7”) stably expresses HCV replicon RNA which consists of (i) the HCV 5′UTR fused to the first 12 amino acids of the capsid protein, (ii) the neomycin phosphotransferase gene (neo), (iii) the IRES from encephalomyocarditis virus (EMCV), and (iv) HCV […] to NSSB genes and the HCV 3′UTR. Another replicon cell line (“Huh-luc/neo-ET”) described by Vrolijk et. al. (Vrolijk et. al. (2003) Journal of Virological Methods 110:201-209, expressly incorporated by reference in its entirety) stably expresses HCV replicon RNA which consists of (i) the HCV 5′UTR fused to the first 12 amino acids of the capsid protein, (ii) the firefly luciferase reporter gene, (iii) the ubiquitin gene, (iv) the neomycin phosphotransferase gene (neo), (v) the IRES from encephalomyocarditis virus (EMCV), and (vi) HCV NS3 to NS5B genes that harbor cell culture adaptive mutations (E1202G, T1280I, K1846T) and the HCV 3′UTR.\n(§3) These cell lines were maintained at 37° C., 5% CO2, 100% relative humidity in DMEM (Cat#11965-084, Invitrogen), with 10% fetal calf serum (“FCS”, Invitrogen), 1% non-essential amino acids (Invitrogen), 1% of Glutamax (Invitrogen), 1% of 100× penicillin/streptomycin (Cat#15140-122, Invitrogen) and Geneticin (Cat#10131-027, Invitrogen) at 0.75 mg/ml or 0.5 mg/ml for 11-7 and Huh-luc/neo-ET cells, respectively.\n(§4) EC50 values of single agent compounds and combinations were determined by HCV RNA detection using quantitative RT-PCR, according to the manufacturer's instructions, with a TAQMAN® One-Step RT-PCR Master Mix Reagents Kit (Cat#AB 4309169, Applied Biosystems) on an ABI Model 7500 thermocycler. The TaqMan primers used for detecting and quantifying HCV RNA were obtained from Integrated DNA Technologies. HCV RNA was normalized to GAPDH RNA levels in drug-treated cells, which is detected and quantified using the Human GAPDH Endogenous Control Mix (Applied Biosystems, AB 4310884E). Total cellular RNA is purified from 96-well plates using the RNAqueous 96 kit (Ambion, Cat# AM1812). Chemical agent cytotoxicity is evaluated using an MTS assay according to the manufacturer's directions (Promega).\n(§5) Since clinical drug resistance often develops in viral infections following single agent therapies, there is a need to assess the additive, antagonistic, or synergistic properties of combination therapies. We used the HCV replicon system to assess the potential use of the compound of the present invention or in combination therapies with Interferon alpha, cyclosporine analogs and inhibitors targeting other HCV proteins. The acute effects of a single or combinations of drugs are studied in the “Huh-luc/neo-ET” replicon with each chemical agent titrated in an X or Y direction in a 6 point two-fold dilution curve centered around the EC50 of each drug. Briefly, replicon cells are seeded at 7,000 cells per well in 90 ul DMEM (without phenol red, Invitrogen Cat.#31053-036) per well with 10% FCS, 1% non-essential amino acids, 1% of Glutamax and 1% of 100× penicillin/streptomycin and incubated overnight at 37° C., 5% CO2, 100% relative humidity. […]", "units": {"EC50": "nM"}}
{"compound": "COC(=O)N[C@H](C(=O)N1CCC[C@H]1c1nc(-c2ccc(CCc3ccc4[nH]c([C@@H]5CCCN5C(=O)[C@@H](NC(=O)OC)C(C)C)nc4c3)cc2)c[nH]1)C(C)C", "note": "[Example 494]", "EC50": "< 1"}
{"compound": "COC(=O)N[C@H](C(=O)N1CCC[C@H]1c1nc(-c2ccc(C#Cc3ccc4[nH]c([C@@H]5CCCN5C(=O)[C@H](NC(=O)OC)C(C)C)nc4c3)cc2)c[nH]1)C(C)C", "note": "[Example 508]", "EC50": "< 1"}
{"compound": "COC(=O)N[C@H](C(=O)N1CCC[C@H]1c1nc(-c2ccc3cc(C#Cc4ccc5[nH]c([C@@H]6CCCN6C(=O)[C@@H](NC(=O)OC)C(C)C)nc5c4)ccc3c2)c[nH]1)C(C)C", "note": "[Example 475]", "EC50": "< 1"}
{"compound": "COC(=O)N[C@H](C(=O)N1CCC[C@H]1c1ncc(-c2ccc(C#Cc3ccc4nc([C@]5(C)CCCN5C(=O)[C@@H](NC(=O)OC)C(C)C)[nH]c4c3)cc2)[nH]1)C(C)C", "note": "[Example 539]", "EC50": "< 1"}
{"compound": "COC(=O)N[C@H](C(=O)N1CCC[C@H]1c1nc2cc(-c3ccc4cc(-c5c[nH]c([C@@H]6CCCN6C(=O)[C@@H](NC(=O)OC)[C@@H](C)OC)n5)ccc4c3)ccc2[nH]1)[C@@H](C)O", "note": "[Example 465]", "EC50": "< 1"}
{"compound": "COC(=O)N[C@H](C(=O)N1CCC[C@H]1c1nc(-c2ccc(OCc3ccc4[nH]c([C@@H]5CCCN5C(=O)[C@@H](NC(=O)OC)C(C)C)nc4c3)cc2)c[nH]1)C(C)C", "note": "[Example 451]", "EC50": "< 1"}
{"compound": "COC(=O)N[C@H](C(=O)N1CCC[C@H]1c1ncc(-c2ccc(C#Cc3ccc4nc([C@@H]5CCCN5C(=O)[C@@H](NC(=O)OC)C(C)C)[nH]c4c3)cc2)[nH]1)C(C)C", "note": "[Example 515]", "EC50": "< 1"}
{"compound": "COC(=O)N[C@@H](C(=O)N1CCC[C@H]1c1nc(-c2ccc(C#Cc3ccc4[nH]c([C@@H]5CCCN5C(=O)[C@H](NC(=O)OC)c5ccccc5)nc4c3)cc2)n[nH]1)c1ccccc1", "note": "[Example 442]", "EC50": "< 1"}
{"compound": "COC(=O)N[C@H](C(=O)N1CCC[C@H]1c1nc(-c2ccc(C#Cc3ccc4[nH]c([C@@H]5C[C@@H](O)CN5C(=O)[C@@H](NC(=O)OC)C(C)C)nc4c3)cc2)c[nH]1)C(C)C", "note": "[Example 517]", "EC50": "< 1"}
{"compound": "COC(=O)N[C@@H](C(=O)N1CCC[C@H]1c1nc2ccc(C#Cc3ccc(-c4cnc([C@@H]5CCCN5C(=O)[C@H](NC(=O)OC)c5ccccc5)o4)cc3)cc2[nH]1)c1ccccc1", "note": "[Example 533]", "EC50": "< 1"}
{"compound": "COC(=O)N[C@@H](C(=O)N1CCC[C@H]1c1nc2ccc(CCc3ccc(-c4cnc([C@@H]5CCCN5C(=O)[C@H](NC(=O)OC)c5ccccc5)o4)cc3)cc2[nH]1)c1ccccc1", "note": "[Example 534]", "EC50": "< 1"}
{"compound": "COC(=O)N[C@H](C(=O)N1CCC[C@H]1c1nc(-c2ccc(C#Cc3ccc4[nH]c([C@@H]5CCCN5C(=O)[C@@H](NC(=O)OC)[C@@H](C)OC)nc4c3)cc2)c[nH]1)C(C)C", "note": "[Example 505]", "EC50": "< 1"}
{"compound": "COC(=O)N[C@@H](C(=O)N1CCC[C@H]1c1cc(-c2ccc(CCc3ccc4[nH]c([C@@H]5CCCN5C(=O)[C@H](NC(=O)OC)c5ccccc5)nc4c3)cc2)n[nH]1)c1ccccc1", "note": "[Example 446]", "EC50": "< 1"}
{"compound": "CC[C@H](NC(=O)OC)C(=O)N1CCC[C@H]1c1nc2cc(C#Cc3ccc(-c4c[nH]c([C@@H]5CCCN5C(=O)[C@@H](NC(=O)OC)C(C)C)n4)cc3)ccc2[nH]1", "note": "[Example 502]", "EC50": "< 1"}
{"compound": "CCC[C@H](NC(=O)OC)C(=O)N1CCC[C@H]1c1nc2cc(C#Cc3ccc(-c4c[nH]c([C@@H]5CCCN5C(=O)[C@@H](NC(=O)OC)C(C)C)n4)cc3)ccc2[nH]1", "note": "[Example 503]", "EC50": "< 1"}
{"compound": "COC(=O)N[C@H](C(=O)N1CCC[C@H]1c1nc(-c2ccc(C#Cc3ccc4[nH]c([C@@H]5CCCN5C(=O)OC(C)(C)C)nc4c3)cc2)c[nH]1)C(C)C", "note": "[Example 500]", "EC50": "1 to 10"}
{"compound": "COC(=O)N[C@H](C(=O)N1CCC[C@H]1c1nc(-c2ccc3cc(-c4ccc5[nH]c([C@@H]6CCCN6C(=O)[C@@H](NC(=O)OC)C(C)C)nc5c4)ccc3c2)c[nH]1)C(C)C", "note": "[Example 459]", "EC50": "< 1"}
{"compound": "COC(=O)N[C@H](C(=O)N1CCC[C@H]1c1ncc(-c2ccc(C#Cc3ccc4nc([C@@H]5C[C@H]6C[C@H]6N5C(=O)[C@@H](NC(=O)OC)C(C)C)[nH]c4c3)cc2)[nH]1)C(C)C", "note": "[Example 541]", "EC50": "< 1"}
{"compound": "COC(=O)N[C@H](C(=O)N1CCC[C@H]1c1ncc(-c2ccc(-c3ccc(-c4ccc5nc([C@@H]6CCCN6C(=O)[C@@H](NC(=O)OC)C(C)C)[nH]c5c4)cc3)cc2)[nH]1)C(C)C", "note": "[Example 499]", "EC50": "< 1"}
{"compound": "COC(=O)N[C@H](C(=O)N1CCC[C@H]1c1ncc(-c2ccc(C#Cc3ccc4nc([C@@H]5C[C@@H](F)CN5C(=O)[C@@H](NC(=O)OC)C(C)C)[nH]c4c3)cc2)[nH]1)C(C)C", "note": "[Example 540]", "EC50": "< 1"}
{"compound": "COC(=O)N[C@H](C(=O)N1CCC[C@H]1c1ncc(-c2ccc(C#Cc3ccc4nc([C@@H]5CCCN5C(=O)[C@@H](NC(=O)OC)C(C)(C)C)[nH]c4c3)cc2)[nH]1)C(C)C", "note": "[Example 529]", "EC50": "< 1"}
{"compound": "COC(=O)N[C@H](C(=O)N1CCC[C@H]1c1nc(-c2ccc(C#Cc3ccc4[nH]c([C@@H]5CCCN5C(=O)[C@H](NC(=O)OC)c5ccccc5)nc4c3)cc2)c[nH]1)C(C)C", "note": "[Example 504]", "EC50": "< 1"}
{"compound": "CCOC(=O)N[C@H](C(=O)N1CCC[C@H]1c1nc2cc(C#Cc3ccc(-c4c[nH]c([C@@H]5CCCN5C(=O)[C@@H](NC(=O)OC)C(C)C)n4)cc3)ccc2[nH]1)C(C)C", "note": "[Example 481]", "EC50": "< 1"}
{"compound": "COC(=O)N[C@H](C(=O)N1CCC[C@H]1c1nc(-c2ccc(C#Cc3ccc4[nH]c([C@@H]5CCCN5C(=O)[C@@H](NC(C)=O)C(C)C)nc4c3)cc2)c[nH]1)C(C)C", "note": "[Example 506]", "EC50": "< 1"}
{"compound": "COC(=O)N[C@H](C(=O)N1CCC[C@H]1c1nc2cc(C#Cc3ccc(-c4c[nH]c([C@@H]5CCCN5C(=O)[C@H](NC(=O)OC)C(C)C)n4)cc3)ccc2[nH]1)C(C)C", "note": "[Example 513]", "EC50": "< 1"}
{"compound": "COC(=O)N[C@@H](C(=O)N1CCC[C@H]1c1ncc(-c2ccc(CCc3ccc4nc([C@@H]5CCCN5C(=O)[C@H](NC(=O)OC)c5ccccc5)[nH]c4c3)cc2)[nH]1)c1ccccc1", "note": "[Example 2-2]", "EC50": "< 1"}
{"compound": "COC(=O)N[C@H](C(=O)N1CCC[C@H]1c1nc2cc(C#Cc3ccc(-c4c[nH]c([C@@H]5CCCN5C(=O)OC(C)(C)C)n4)cc3)ccc2[nH]1)C(C)C", "note": "[Example 510]", "EC50": "< 1"}
{"compound": "COC(=O)N[C@H](C(=O)N1CCC[C@H]1c1nc(-c2ccc(C#Cc3cc4nc([C@@H]5CCCN5C(=O)[C@@H](NC(=O)OC)C(C)C)[nH]c4cc3Cl)cc2)c[nH]1)C(C)C", "note": "[Example 485]", "EC50": "< 1"}
{"compound": "COC(=O)N[C@@H](C)C(=O)N1CCC[C@H]1c1nc2cc(C#Cc3ccc(-c4c[nH]c([C@@H]5CCCN5C(=O)[C@@H](NC(=O)OC)C(C)C)n4)cc3)ccc2[nH]1", "note": "[Example 501]", "EC50": "< 1"}
{"system": "HCV 1b genotype replicon", "experiment": "HCV replicon assay (qRT-PCR or luciferase), genotype 1b", "assay_type": "cell-based", "conditions": "Hepatitis C virus, Table 12, numeric values, read-out: 1b EC50", "text": "as §1, §2, §3, §4, §5", "units": {"EC50": "nM"}}
{"compound": "COC(=O)N[C@H](C(=O)N1CCC[C@H]1c1ncc(-c2ccc(C#Cc3ccc4nc([C@@H]5C[C@]6(CCCOC6)CN5C(=O)[C@@H](NC(=O)OC)C(C)C)[nH]c4c3)cc2)[nH]1)C(C)C", "note": "[Example 570]", "EC50": 0.008}
{"compound": "COC(=O)N[C@H](C(=O)N1CC2(CC2)C[C@H]1c1nc(-c2ccc(C#Cc3ccc4[nH]c([C@@H]5CC6(CC6)CN5C(=O)[C@@H](NC(=O)OC)C(C)C)nc4c3)cc2)c[nH]1)C(C)C", "note": "[Example 548]", "EC50": 0.004}
{"system": "HCV 1b genotype replicon", "experiment": "HCV replicon assay (qRT-PCR or luciferase), genotype 1b", "assay_type": "cell-based", "conditions": "Hepatitis C virus, Table 12, range class, read-out: 1b EC50 Range", "text": "as §1, §2, §3, §4, §5", "units": {"EC50": "nM"}}
{"compound": "COC(=O)N[C@H](C(=O)N1[C@@H]2C[C@@H]2C[C@H]1c1ncc(-c2ccc(C#Cc3ccc4nc([C@@H]5CC6(CC6)CN5C(=O)[C@H](NC(=O)OC)c5ccccc5)[nH]c4c3)cc2)[nH]1)C(C)C", "note": "[Example 648]", "EC50": "< 1"}
